The numbers were not newly measured in patent US20260120816A1, “PREDICTION METHOD FOR PROTOPORPHYRINOGEN OXIDASE (PPO) INHIBITOR” (Pan Advanced Business Research, LLC, priority 2024, published 2026), which cites them from elsewhere.

The conditions of the series: control compound, Non Patent Literature 8.

`CC(=O)c1c(C)nn(C)c1O` [compound B, 1-(5-hydroxy-1,3-dimethyl-1H-pyrazol-4-yl)ethanone]: the herbicidal activity entry is given as “no herbicidal activity at all”.
